Assay results taken from patent US20010053774A1, “Non-steroidal ligands for the estrogen receptor” (GLAXO WELLCOME INC.., priority 1994, published 2001).
Like-named read-outs stand apart in the source and are kept apart here.

What was measured:
rat estrogen receptor = rat estrogen receptor (Rattus norvegicus, UniProt P06211); conditions: for receptor affinity in the receptor binding assay (in words): comparison within the amide analog series
From the text: Those skilled in the art will appreciate that several acceptable varieties of rat estrogen receptor binding assays are known and available for initial screening of the compounds of the present invention with respect to their ability to bind to the appropriate receptor. Compounds were initially evaluated as set forth below in an rat estrogen receptor binding assay for the ability to inhibit the binding of [^3H]-estradiol.

[1] = tested on: Ishikawa human endometrioma cell line; assay: Ishikawa cell functional assay of estrogenic activity (alkaline phosphatase induction); type: cell-based; conditions: for EC50: Ishikawa-Var I cells, 2 days incubation, estrogen agonist activity, read-out: EC50 (concentration inducing 50% of maximal alkaline phosphatase activity); for agonist activity (Emax) in the Ishikawa cell functional assay (in words): comparison with tamoxifen or within the series; for Emax (maximal alkaline phosphatase activity) / Emax: percentage of the alkaline phosphatase activity induced by a saturating concentration of estradiol; for Emax: Ishikawa, read-out: Emax (maximal alkaline phosphatase activity)
Experimental: Subconfluent Ishikawa-Var I cells were removed from maintenance growth conditions and resuspended in phenol red-free DMEM-F12 containing 5% charcoal stripped FBS and 2 mM glutamine at a concentration of 58,500 cells/mL. Cells were plated at a density of 13,000 cells/cm^2 and placed in an incubator (37° C., 5% CO2) for 3 days. Cells were harvested and resuspended in phenol red-free DMEM-F12 containing 1% charcoal stripped FBS, 2 mM glutamine, 100 Units/mL penicillin and 100 μg/mL streptomycin to a concentration of 83,000 cells/mL. Cells were seeded at a density of 8300 cells/well in 96 well plates and allowed to attach overnight. Appropriate drug treatments at 2× concentrations were added in 0.1 mL of medium containing 0.2% DMSO. Plates were incubated for 2 days, media was aspirated and plates washed once with 300 μL 0.9% sterile saline. Plates were frozen at −70° C. and then warmed to RT. The attached cells were assayed for alkaline phosphatase activity by addition of 200 μL of 5 mM p-nitrophenylphosphate in 1 M diethanolamine, pH 10.4, containing 0.1% (w/v) Triton X-100, incubation at 37° C. for 30 min and measurement of absorbance at 405 nm on a Molecular Devices ThermoMax plate reader.

[2] = tested on: 21 day old female SD rats; assay: in-vivo anti-uterotrophic activity in immature rats (uterine weight/body weight); design: species or system rat; conditions: 10 μmol/kg by gavage for 3 days, compared with tamoxifen
Experimental: In order to evaluate the compounds set forth above for in-vivo anti-uterotrophic activity, groups of five 21 day old female SD rats (30-35 g) were weighed and the average weights recorded for each treatment group as illustrated in FIG. 1. Stock solutions (10×) of the triphenylethylene analogs in ethanol were diluted with 0.5% methyl cellulose and 10 μmol/kg was dosed by gavage to the animals. Estradiol was dissolved in sesame oil and 100 nmol/kg dosed by subcutaneous injection. Animals were dosed for 3 days and sacrificed on day 4 by CO2 asphyxiation. The body weights were obtained, uteri removed, blotted and weighed. Data is expressed as uterine weight/body weight±standard error. Solid bars represent data from animals dosed with test compound alone. Open bars represent data from animals dosed with test compounds 6h prior to a dose of estradiol.

[3] = tested on: 90 day old estrogen deficient ovariectomized rats; assay: bone mineral density in ovariectomized rats (lumbar spine and tibia); type: in vivo, rat; conditions: 10 μmol/kg orally once a day for 28 days, versus sham-operated
Experimental: As an example of the functional profile of these compounds in bone, Compound No. 9 was evaluated in 90 day old estrogen deficient ovariectomized rats for their ability to inhibit loss of bone mineral density. Ninety day old SD rats were divided into groups of six. […] were surgically ovariectomized. Two days post-ovariectomy, animals were dosed by gavage with either 10 μmol/kg of Compound No. 9 in 0.5% methyl cellulose or vehicle once a day for 28 days. One group of aminals was sham-operated, and 2 days post-ovariectomy dosed with vehicle once a day for 28 days. At 0, 14 and 28 days, rats were anesthesized with isoflurane and placed in the supine position with their spines parallel to the long axis of the densitometer table. The lumbar spine was scanned using the pelvic bones as a landmark. […] The right tibia was analysed with subregional high resolution software, focusing on the 3-5 mm distal from the growth plate previously identified as a region of accelerated bone loss due to ovariectomy.
BMD was measured by dual-energy X-ray absorptiometry using a Hologic QDR-2000 bone densitometer using a regional high-resolution software package with default scan length, width, line spacing and point resolution of 2, 0.75, 0.01 and 0.005 in. respectively.

Sequence of rat estrogen receptor (P06211 whole entry): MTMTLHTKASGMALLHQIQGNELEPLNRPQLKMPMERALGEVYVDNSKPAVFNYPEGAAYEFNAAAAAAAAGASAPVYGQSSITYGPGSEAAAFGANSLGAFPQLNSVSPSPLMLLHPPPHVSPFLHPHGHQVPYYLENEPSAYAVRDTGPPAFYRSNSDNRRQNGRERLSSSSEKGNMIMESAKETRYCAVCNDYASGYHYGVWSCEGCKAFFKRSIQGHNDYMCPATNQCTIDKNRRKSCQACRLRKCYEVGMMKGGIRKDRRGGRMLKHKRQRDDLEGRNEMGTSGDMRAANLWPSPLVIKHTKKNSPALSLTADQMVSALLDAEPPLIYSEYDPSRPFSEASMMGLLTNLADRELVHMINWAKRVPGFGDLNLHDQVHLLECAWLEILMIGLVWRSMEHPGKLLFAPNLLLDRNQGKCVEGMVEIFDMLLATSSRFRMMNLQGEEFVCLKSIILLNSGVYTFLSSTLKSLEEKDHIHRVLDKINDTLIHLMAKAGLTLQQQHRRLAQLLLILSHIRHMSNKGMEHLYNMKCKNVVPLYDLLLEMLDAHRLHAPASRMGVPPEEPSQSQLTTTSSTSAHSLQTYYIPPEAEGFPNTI

Question: With CCC(=C(c1ccccc1)c1ccc(C=CC(=O)N(CC)CC)cc1)c1ccccc1 [Compound No. 1, 3-[4-(1,2-Diphenyl-but-1-enyl)-phenyl]-N,N-diethyl acrylamide] as the compound, how does the “receptor affinity in the receptor binding assay (in words)” value (rat estrogen receptor) read?
Answer: Its value is “highest affinity”.

Question: And the “estrogen receptor binding affinity relative to tamoxifen” value (rat estrogen receptor; higher affinity than tamoxifen)?
Answer: Its value is “approx. 10 fold”.

Question: And the EC50 [1]?
Answer: The EC50 was 2.3 nM.

Question: What about the “agonist activity (Emax) in the Ishikawa cell functional assay (in words)” value (“agonist activity (Emax)” for short) [1] of the same compound?
Answer: Its value is “significantly lower agonist activity (Emax) than tamoxifen”.

Question: What about the “Emax (maximal alkaline phosphatase activity)” value [1] of the same compound?
Answer: The value was 11.9 ± 1.2%.

Question: Which EC50 ([1]; Homo sapiens, 48 h) does the source give for CCC(=C(c1ccccc1)c1ccc(C=C(C)C(=O)N(CC)CC)cc1)c1ccccc1 [Compound No. 4, 3-[4-(1,2-Diphenyl-but-1-enyl)-phenyl]-N, N-diethyl-2-methyl-acrylamide] here?
Answer: The EC50 was 20 nM.

Question: And the Emax ([1]; Homo sapiens)?
Answer: Its Emax is 18.8 ± 2.3%.

Question: For CCC(=C(c1ccccc1)c1ccc(C(C)=CC(=O)N(CC)CC)cc1)c1ccccc1 [Compound No. 5, 3-[4-(1,2-Diphenyl-but-1-enyl)-phenyl]-but-2-enoic acid diethylamide], which melting point is on record?
Answer: The melting point was 109 to 111 °C.

Question: What about the EC50 ([1]; Homo sapiens, 48 h) of the same compound?
Answer: The EC50 was 7.3 nM.

Question: What about the Emax ([1]; Homo sapiens) of the same compound?
Answer: The Emax was 15 ± 3%.

Question: With CCC(=C(c1ccccc1)c1ccc(C=CC(=O)OC)cc1)c1ccccc1 [Compound No. 6, 3-[4-(1,2-Diphenyl-but-1-enyl)-phenyl]-acrylic acid methyl ester] as the compound, how does the melting point read?
Answer: The melting point was 133 to 135 °C.

Question: With CCC(=C(c1ccccc1)c1ccc(C=CC#N)cc1)c1ccccc1 [Compound No. 7, 3-[4-(1,2-Diphenyl-but-1-enyl)-phenyl]-acrylonitrile] as the compound, how does the melting point read?
Answer: The melting point was 101 to 102 °C.

Question: With CCC(=C(c1ccccc1)c1ccc(C=CC(=O)OC(C)(C)C)cc1)c1ccccc1 [Compound No. 8, 3-[4-(1,2-Diphenyl-but-1-enyl)-phenyl]-acrylic acid tert-butyl ester] as the compound, how does the melting point read?
Answer: Its melting point is 139 to 140 °C.

Question: Which “residual agonist activity, uterine weight/body weight (FIG. 1)” value [2] does the source give for CCC(=C(c1ccccc1)c1ccc(C=CC(=O)O)cc1)c1ccccc1 [Compound No. 9, 3-[4-(1,2-Diphenyl-but-1-enyl)-phenyl]-acrylic acid] here?
Answer: The value was “less residual agonist activity than tamoxifen”.

Question: And the “bone mineral density (BMD), lumbar spine and tibia (FIG. 2)” value [3]?
Answer: Its value is “full agonist activity”.

Question: And the EC50 ([1]; Homo sapiens, 48 h)?
Answer: Its EC50 is 58 nM.

Question: And the Emax ([1]; Homo sapiens)?
Answer: Its Emax is 3.8 ± 0.9%.

Question: What about the “agonist activity (Emax)” value [1] of the same compound?
Answer: Its value is “lowest residual agonist activity”.

Question: Which “receptor affinity in the receptor binding assay (in words)” value (rat estrogen receptor) does the source give for CCC(=C(c1ccccc1)c1ccc(C=CC(=O)N(C2CCCCC2)C2CCCCC2)cc1)c1ccccc1 [Compound No. 12, N,N-Dicyclohexyl-3-[4-(1,2-diphenyl-but-1-enyl)-phenyl] acrylamide] here?
Answer: Its value is “reduced receptor affinity”.

Question: And the EC50 [1]?
Answer: Its EC50 is 70 nM.

Question: What about the “Emax (maximal alkaline phosphatase activity)” value [1] of the same compound?
Answer: Its value is 19.4 ± 2.0%.

Question: Which melting point does the source give for CCC(=C(c1ccccc1)c1ccc(C=Cc2noc(C)n2)cc1)c1ccccc1 [Compound No. 18, 3-{2-[4-(1,2-Diphenyl-but-1-enyl)-phenyl]-vinyl}-5-methyl-[1,2,4]-oxadiazole] here?
Answer: Its melting point is 158 to 159 °C.

Question: For CCC(=C(c1ccccc1)c1ccc(C=CCO)cc1)c1ccccc1 [Compound No. 19, 3-[4-(1,2-Diphenyl-but-1-enyl)-phenyl]-prop-2-ene-1-ol], which melting point is on record?
Answer: The melting point was 80 to 83 °C.

Question: Which results are given for C[C@]12CC[C@@H]3c4ccc(O)cc4CC[C@H]3[C@@H]1CC[C@@H]2O [Estradiol, estradiol, reference compound]?
Answer: EC50 ([1]; Homo sapiens, 48 h): 0.01 nM; Emax ([1]; Homo sapiens): 100%

Question: With CC/C(=C(\c1ccccc1)c1ccc(OCCN(C)C)cc1)c1ccccc1 [Tamoxifen, (Z)-1,2-diphenyl-1-[4-[2-(dimethylamino)ethoxy]phenyl]-1-butene, reference compound] as the compound, how does the EC50 ([1]; Homo sapiens, 48 h) read?
Answer: Its EC50 is 33 nM.

Question: What about the Emax ([1]; Homo sapiens) of the same compound?
Answer: Its Emax is 16.5 ± 0.6%.

Question: Which results are given for CCC(=C(c1ccccc1)c1ccc(C2CC2C(=O)N(CC)CC)cc1)c1ccccc1 (stereo not drawn) [compound 3, 2-[4-(1,2-Diphenyl-but-1-enyl)-phenyl]cyclopropanecarboxylic acid diethylamide]?
Answer: melting point: 42 to 44 °C; EC50 ([1]; Homo sapiens, 48 h): 4.9 nM; Emax ([1]; Homo sapiens): 15.7 ± 1.8%

Question: With CCC(=C(c1ccccc1)c1ccc(C=CC(=O)N2CCOCC2)cc1)c1ccccc1 [compound 10, 3-[4-(1,2-Diphenyl-but-1-enyl)-phenyl]-1-morpholin-4-yl-prop-2-en-1-one] as the compound, how does the melting point read?
Answer: Its melting point is 150 to 154 °C.

Question: And the EC50 ([1]; Homo sapiens, 48 h)?
Answer: The EC50 was 6.9 nM.

Question: What about the Emax ([1]; Homo sapiens) of the same compound?
Answer: Its Emax is 14.8 ± 2.4%.

Question: With CCC(=C(c1ccccc1)c1ccc(C=CC(=O)NCCCOC)cc1)c1ccccc1 [compound 11, 3-[4-(1,2-Diphenyl-but-1-enyl)-phenyl]-N-(3-methoxy-propyl)-acrylamide] as the compound, how does the melting point read?
Answer: The melting point was 132 to 135 °C.

Question: And the EC50 ([1]; Homo sapiens, 48 h)?
Answer: Its EC50 is 11 nM.

Question: What about the Emax ([1]; Homo sapiens) of the same compound?
Answer: Its Emax is 14 ± 1.5%.

Question: What does the source list for CCC(=C(c1ccccc1)c1ccc(C=CC(=O)N(CC)CCN(C)C)cc1)c1ccccc1 [compound 13, N-(2-Dimethylamino-ethyl)-3-[4-(1,2-diphenyl-but-1-enyl)-phenyl]-N-ethyl acrylamide]?
Answer: EC50 [1]: 4.6 nM; Emax (maximal alkaline phosphatase activity) [1]: 16.5 ± 1.7%

Question: What does the source list for CCCCCCCCN(C)C(=O)C=Cc1ccc(C(=C(CC)c2ccccc2)c2ccccc2)cc1 [compound 14, 3-[4-(1,2-Diphenyl-but-1-enyl)-phenyl]-N-methyl-N-octyl acrylamide]?
Answer: EC50 [1]: 12 nM; agonist activity (Emax) in the Ishikawa cell functional assay (in words) [1]: lowest residual agonist activity; Emax (maximal alkaline phosphatase activity) [1]: 6.3 ± 1.2%

Question: For CCC(=C(c1ccccc1)c1ccc(C=CC(N)=O)cc1)c1ccccc1 [compound 15, 3-[4-(1,2-Diphenyl-but-1-enyl)-phenyl]acrylamide], which “residual agonist activity, uterine weight/body weight (FIG. 1)” value [2] is on record?
Answer: The value was “less residual agonist activity than tamoxifen”.

Question: What about the melting point of the same compound?
Answer: Its melting point is 200 to 202 °C.

Question: And the EC50 ([1]; Homo sapiens, 48 h)?
Answer: The EC50 was 8.6 nM.

Question: What about the Emax ([1]; Homo sapiens) of the same compound?
Answer: Its Emax is 8.9 ± 1.4%.

Question: And the “agonist activity (Emax)” value [1]?
Answer: The value was “lowest residual agonist activity”.

Question: Which results are given for CCNC(=O)C=Cc1ccc(C(=C(CC)c2ccccc2)c2ccccc2)cc1 [compound 16, 3-[4-(1,2-Diphenyl-but-1-enyl)-phenyl]-N-ethyl acrylamide]?
Answer: EC50 [1]: 18 nM; Emax (maximal alkaline phosphatase activity) [1]: 11.8 ± 1.9%

Question: For CCC(=C(c1ccccc1)c1ccc(C=CC(N)=NO)cc1)c1ccccc1 [compound 17, 1-Amino-3-[4-(1,2-diphenyl-but-1-enyl)-phenyl]-prop-2-ene-1-one oxime], which melting point is on record?
Answer: The melting point was 182 to 185 °C.

Question: For CCC(=C(c1ccccc1)c1ccc(C=CC(=S)N(CC)CC)cc1)c1ccccc1 [compound 21, 3-[4-(1,2-Diphenyl-but-1-enyl)-phenyl]-N,N-diethyl thioacrylamide], which EC50 [1] is on record?
Answer: The EC50 was 6.9 nM.

Question: And the “Emax (maximal alkaline phosphatase activity)” value [1]?
Answer: Its value is 18.8 ± 2.6%.

Question: Which results are given for CCC(=C(c1ccccc1)c1ccc(C=CC(=O)NCCCO)cc1)c1ccccc1 [compound 22, 3-[4-(1,2-Diphenyl-but-1-enyl)-phenyl]-N-(3-hydroxy-propyl)-acrylamide]?
Answer: melting point: 144 to 146 °C; EC50 ([1]; Homo sapiens, 48 h): 17 nM; Emax ([1]; Homo sapiens): 15.3 ± 2.4%
